In publication PMC7694207, “Functional Characterization of the N-Acetylmuramyl-L-Alanine Amidase, Ami1, from Mycobacterium abscessus” (Cells, 2020):
Non-standard residues stand in square brackets, D forms with d. Residues, ends and D or L forms follow the SMILES beside them.

Experiments:
[1] = target: T1, Ami1Mab (Mycobacteroides abscessus, UniProt B1MFL7); assay: TLC-based muramyl-dipeptide hydrolysis assay; format: biochemical; conditions: substrate MDP; PBS; 37 °C; compound numbering as in Results
T1 construct: gene MAB_0318c; first 40 residues (signal peptide) removed; pET151 N-terminal tag cut by TEV; E. coli BL21(DE3) pRARE2; zinc enzyme

[2] = target: T1, Ami1Mab; assay: TLC-based muramyl-dipeptide hydrolysis assay; format: biochemical; conditions: substrate MDP; PBS; 37 °C
[3] = target: T1, Ami1Mab; assay: TLC hydrolysis assay, ninhydrin; format: biochemical; conditions: PBS, 37 °C, 30 min; Zn2+-dependent
[4] = target: T2, Ami1Mtb (Mycobacterium tuberculosis, UniProt I6Y4D2); format: biochemical
T2 construct: gene Rv3717

[5] = target: T1, Ami1Mab; assay: X-ray co-crystal structure, […] Å; format: binding; conditions: co-crystallized with 5 mM dipeptide; active site near Zn2+
[6] = target: T1, Ami1Mab; assay: TLC-based muramyl-dipeptide hydrolysis assay; format: biochemical; conditions: substrate MDP; PBS; 37 °C; compound numbering as in Results; remark: listed apart in the source

T1 sequence (B1MFL7 entry or part of it): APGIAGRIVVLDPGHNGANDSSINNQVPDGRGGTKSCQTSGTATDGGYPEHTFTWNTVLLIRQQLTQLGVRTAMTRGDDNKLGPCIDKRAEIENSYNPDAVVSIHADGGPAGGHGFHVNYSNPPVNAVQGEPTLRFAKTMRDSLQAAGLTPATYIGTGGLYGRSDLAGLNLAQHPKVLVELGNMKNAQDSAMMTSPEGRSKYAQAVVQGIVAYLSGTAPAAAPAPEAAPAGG
T2 sequence (I6Y4D2 whole entry, looked up): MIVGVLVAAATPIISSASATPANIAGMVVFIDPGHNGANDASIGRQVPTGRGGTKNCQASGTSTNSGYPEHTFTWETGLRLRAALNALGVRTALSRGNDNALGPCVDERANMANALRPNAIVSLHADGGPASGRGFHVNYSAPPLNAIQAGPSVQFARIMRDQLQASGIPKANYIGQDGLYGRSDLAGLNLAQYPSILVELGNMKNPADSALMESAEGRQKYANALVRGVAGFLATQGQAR

Nc1ccccc1-c1nn[nH]n1 [compound 2, 2-(1H-1,2,3,4-tetrazol-5-yl)aniline]
inhibitory activity starting at [1]: 800 µM

O=C(O)c1coc2ccnc(Cl)c12 [compound 1, 4-chlorofuro [3,2-c]pyridine-3-carboxylic acid]
inhibitory effect, starting at [2]: 150 to 200 µM

CC(=O)N[C@H]1C(O)O[C@H](CO)[C@@H](O)[C@@H]1O[C@H](C)C(=O)N[C@@H](C)C(=O)N[C@H](CCC(=O)O)C(N)=O (stereo partly drawn) [muramyl-dipeptide]
TLC hydrolysis assay, ninhydrin [3]: MDP was rapidly hydrolyzed by Ami1Mab
TLC hydrolysis assay, ninhydrin [4]: Activity of both Ami1Mab and Ami1Mtb is inhibited after incubation with EDTA

C[C@H](N)C(=O)N[C@H](CCC(=O)O)C(N)=O [L-Ala-D-IsoGln] (H-Ala-[dE]-NH2)
X-ray co-crystal structure, 1.7 Å [5]: The co-crystal structure of Ami1Mab bound to L-Ala-D-IsoGln was also solved

O=C(O)c1ccnc(Cl)c1C(=O)O [compound 3, 2-chloropyridine-3,4-dicarboxylic acid]
inhibitory effect, starting between [6]: 250 to 500 µM
